This assay deals with T1, recombinant murine JAK3 (Mus musculus, UniProt Q62137).
T1 sequence (Q62137 1-1100): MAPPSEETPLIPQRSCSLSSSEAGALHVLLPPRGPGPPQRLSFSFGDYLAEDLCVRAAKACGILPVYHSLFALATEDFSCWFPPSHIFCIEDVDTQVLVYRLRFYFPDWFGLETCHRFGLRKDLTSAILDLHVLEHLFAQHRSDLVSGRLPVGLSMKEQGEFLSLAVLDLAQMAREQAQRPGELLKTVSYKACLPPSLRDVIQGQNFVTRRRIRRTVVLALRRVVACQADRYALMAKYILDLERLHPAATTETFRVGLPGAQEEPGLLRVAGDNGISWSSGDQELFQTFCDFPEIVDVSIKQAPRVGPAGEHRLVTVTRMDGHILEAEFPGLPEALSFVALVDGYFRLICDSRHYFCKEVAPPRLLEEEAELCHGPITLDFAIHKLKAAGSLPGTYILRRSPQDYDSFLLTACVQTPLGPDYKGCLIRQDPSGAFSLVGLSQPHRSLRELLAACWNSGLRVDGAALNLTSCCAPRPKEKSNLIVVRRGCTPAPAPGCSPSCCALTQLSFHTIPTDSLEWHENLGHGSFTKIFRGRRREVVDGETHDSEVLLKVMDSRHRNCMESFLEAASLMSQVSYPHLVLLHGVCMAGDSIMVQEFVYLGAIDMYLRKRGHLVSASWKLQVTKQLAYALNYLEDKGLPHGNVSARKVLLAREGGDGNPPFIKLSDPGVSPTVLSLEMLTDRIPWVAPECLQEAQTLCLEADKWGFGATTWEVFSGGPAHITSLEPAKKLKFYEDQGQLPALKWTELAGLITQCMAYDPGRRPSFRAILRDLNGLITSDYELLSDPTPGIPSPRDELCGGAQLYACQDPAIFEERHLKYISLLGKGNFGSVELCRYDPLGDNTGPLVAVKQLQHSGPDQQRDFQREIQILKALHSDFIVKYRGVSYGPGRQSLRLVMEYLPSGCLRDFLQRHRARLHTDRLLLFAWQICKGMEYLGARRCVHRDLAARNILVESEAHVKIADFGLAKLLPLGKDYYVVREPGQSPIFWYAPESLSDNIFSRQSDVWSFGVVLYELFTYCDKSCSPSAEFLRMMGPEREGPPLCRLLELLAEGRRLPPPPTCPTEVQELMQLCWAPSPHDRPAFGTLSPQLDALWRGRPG
Description: Recombinant JAK3 immune complex kinase assay (baculovirus, Sf21). In kind it is biochemical. The protocol: Sf21 (IPLB-SF21-AE) cells (Vassilev, A., et al., J. Biol. Chem. 274: 1646-1656, 1999) derived from the ovarian tissue of the fall armyworm Spodotera frugiperda, were obtained from Invitrogen (Carlsbad, Calif.) and maintained at 26-28° C. in Grace's insect cell medium supplemented with 10% FBS and 1.0% antibiotic/antimycotic (GIBCO-BRL). Stock cells were maintained in suspension at 0.2-1.6×10^6/ml in 600 ml total culture volume in 1 L Bellco spinner flasks at 60-90 rpm. Cell viability was maintained at 95-100% as determined by trypan blue dye exclusion. Sf21 cells were infected with a baculovirus expression vector for BTK, SYK, JAK1, JAK2, or JAK3. Cells were harvested, lysed (10 MM Tris pH7.6, 100 mM NaCl, 1% Nonidet P40, 10% glycerol, 50 mM NaF, 100 μM Na3VO4, 50 μg/ml phenylmethylsulfonyl fluoride, 10 μg/ml aprotonin, 10 μg/ml leupeptin), the kinases were immunoprecipitated from the lysates, and their enzymatic activity assayed, as reported (Vassilev, A., et al., J. Biol. Chem. 274: 1646-1656, 1999; Uckun, F. M., et al., Science. 22: 1096-1100, 1996; Goodman, P. A., et al., J. Biol. Chem. 273: 17742-48, 1998; Mahajan, S., et al., Mol. Cell. Biol. 15: 5304-11, 1995; and Uckun, F. M., et al., Science. 267: 886-91, 1995). The immunoprecipitates were subjected to Western blot analysis as previously described (Vassilev, A., et al., J. Biol. Chem. 274: 1646-1656, 1999; and Uckun, F. M., et al., Science. 22: 1096-1100, 1996).
In JAK3 immune complex kinase assays (17, 22), KL-2 EBV-transformed human lymphoblastoid B cells (native JAK3 kinase assays) or insect ovary cells (recombinant JAK3 kinase assays) were lysed with NP-40 lysis buffer (50 mM Tris, pH 8, 150 mM NaCl, 5 mM EDTA, 1% NP-40, 100 μM sodium orthovanadate, 100 μM sodium molybdate, 8 μg/ml aprotinin, 5 μg/ml leupeptin, and 500 μM PMSF) and centrifuged 10 min at 13000× g to remove insoluble material. Samples were immunoprecipitated with antisera prepared against JAK3. The antisera were diluted and immune complexes collected by incubation with 15 μl protein A Sepharose. After 4 washes with NP-40 lysis buffer, the protein A Sepharose beads were washed once in kinase buffer (20 mM MOPS, pH7, 10 mM MgCl2) and resuspended in the same buffer. Reactions were initiated by the addition of 25 μCi [γ^32P] ATP (5000 Ci/mMole) and unlabeled ATP to a final concentration of 5 μM. Reactions were terminated by boiling for 4 min in SDS sample buffer. Samples were run on 9.5% SDS polyacrylamide gels and labeled proteins were detected by autoradiography. […] For each drug concentration, a kinase activity index (KA) was determined by comparing the kinase activity in phosphorimager units (PIU) to that of the baseline sample. […]

The results in this text go back to patent publication US6469013B2, “Therapeutic compounds” (Parker Hughes Institute, priority 1998, dated 2002).

Consider `COc1cc2ncnc(Nc3ccc(O)cc3)c2cc1OC` [WHI-P131, 4-(4′-hydroxyl-phenyl)-amino-6,7-dimethoxyquinazoline], for which the half-maximal inhibitory concentration (IC50) is 78 µM (recombinant murine JAK3) and approximately 78 µM (recombinant murine JAK3, converted from μg/ml).

A word on the IC50: it is the concentration needed to halve the response being measured.
